Laboratory results as given in patent publication US11912703B2, “6-azaindole compounds” (BRISTOL-MYERS SQUIBB COMPANY, priority 2017, dated 2024).
Where two headings read alike, the source gives them in different places.

Legend:
human TLR9 = human TLR9 (Homo sapiens (Human), UniProt Q9NR96); experiment: TLR9 inhibition reporter assay (HEK-Blue SEAP);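 also: SEAP driven by IFN-β minimal promoter carrying five NF-κB and AP-1 sites, 22 h at 37 °C, compounds 0.05 nM–50 µM, inhibition scaled between agonist-plus-DMSO and reference-inhibitor wells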
Sequence of human TLR9 (Q9NR96 26-1032): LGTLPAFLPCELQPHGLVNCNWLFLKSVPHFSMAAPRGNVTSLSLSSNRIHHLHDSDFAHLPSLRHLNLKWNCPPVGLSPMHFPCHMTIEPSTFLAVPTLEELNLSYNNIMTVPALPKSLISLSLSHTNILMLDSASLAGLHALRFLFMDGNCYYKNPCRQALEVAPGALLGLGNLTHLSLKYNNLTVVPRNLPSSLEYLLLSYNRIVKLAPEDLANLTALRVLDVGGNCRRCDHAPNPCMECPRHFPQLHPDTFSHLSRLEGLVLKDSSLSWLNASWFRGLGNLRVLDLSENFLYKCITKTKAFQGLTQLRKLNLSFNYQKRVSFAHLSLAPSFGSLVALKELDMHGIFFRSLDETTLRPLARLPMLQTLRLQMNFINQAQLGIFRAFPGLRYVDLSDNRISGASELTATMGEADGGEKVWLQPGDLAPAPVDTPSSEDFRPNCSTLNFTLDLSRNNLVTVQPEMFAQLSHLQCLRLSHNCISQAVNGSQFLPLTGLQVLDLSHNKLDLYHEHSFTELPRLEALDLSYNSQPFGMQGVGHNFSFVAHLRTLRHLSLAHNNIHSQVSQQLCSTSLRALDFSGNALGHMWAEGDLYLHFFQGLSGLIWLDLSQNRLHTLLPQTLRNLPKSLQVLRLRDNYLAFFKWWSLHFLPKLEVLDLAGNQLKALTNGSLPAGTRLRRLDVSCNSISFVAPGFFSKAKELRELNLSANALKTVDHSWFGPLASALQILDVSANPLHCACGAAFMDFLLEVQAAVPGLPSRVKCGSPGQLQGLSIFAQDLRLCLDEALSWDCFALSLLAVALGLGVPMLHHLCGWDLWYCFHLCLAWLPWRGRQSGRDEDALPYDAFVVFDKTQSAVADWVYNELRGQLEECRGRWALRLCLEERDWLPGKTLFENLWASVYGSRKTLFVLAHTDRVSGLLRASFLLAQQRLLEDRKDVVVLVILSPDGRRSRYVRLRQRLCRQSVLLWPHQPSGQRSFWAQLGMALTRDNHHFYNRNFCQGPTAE

human TLR7 = human TLR7 (Homo sapiens (Human), UniProt Q9NYK1); experiment: TLR7 inhibition reporter assay (HEK-Blue SEAP); type: cell-based; conditions: HEK-Blue cells overexpressing human TLR7, gardiquimod 7.5 μM stimulation
Sequence of human TLR7 (Q9NYK1 27-1049): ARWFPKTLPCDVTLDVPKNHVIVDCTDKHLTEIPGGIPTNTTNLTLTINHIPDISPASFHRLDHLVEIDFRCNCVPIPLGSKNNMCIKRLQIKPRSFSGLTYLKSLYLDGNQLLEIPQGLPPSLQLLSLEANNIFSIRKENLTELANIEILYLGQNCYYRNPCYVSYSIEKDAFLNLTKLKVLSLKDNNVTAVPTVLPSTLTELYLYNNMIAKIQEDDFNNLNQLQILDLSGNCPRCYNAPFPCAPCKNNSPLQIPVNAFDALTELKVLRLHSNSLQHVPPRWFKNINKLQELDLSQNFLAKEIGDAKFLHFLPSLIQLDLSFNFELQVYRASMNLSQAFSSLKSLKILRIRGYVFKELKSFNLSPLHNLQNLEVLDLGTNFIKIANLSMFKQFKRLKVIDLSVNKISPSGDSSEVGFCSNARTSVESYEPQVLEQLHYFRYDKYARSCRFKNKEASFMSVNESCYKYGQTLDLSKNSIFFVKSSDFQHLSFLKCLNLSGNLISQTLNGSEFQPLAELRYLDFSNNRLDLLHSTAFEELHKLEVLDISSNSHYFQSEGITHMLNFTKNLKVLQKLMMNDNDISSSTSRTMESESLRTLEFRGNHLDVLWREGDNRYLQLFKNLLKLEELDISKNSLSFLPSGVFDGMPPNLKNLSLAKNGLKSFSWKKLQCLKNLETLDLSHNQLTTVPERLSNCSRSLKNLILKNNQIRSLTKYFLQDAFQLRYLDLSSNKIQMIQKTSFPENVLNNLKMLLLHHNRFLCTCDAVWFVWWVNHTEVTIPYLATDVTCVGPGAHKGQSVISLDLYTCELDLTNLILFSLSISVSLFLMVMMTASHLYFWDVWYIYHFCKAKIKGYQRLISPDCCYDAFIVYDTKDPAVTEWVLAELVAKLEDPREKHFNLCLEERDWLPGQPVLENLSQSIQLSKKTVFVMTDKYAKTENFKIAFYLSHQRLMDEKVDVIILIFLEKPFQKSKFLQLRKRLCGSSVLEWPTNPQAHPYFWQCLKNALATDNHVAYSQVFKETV
Protocol: HEK-Blue™-cells (Invivogen) overexpressing human TLR7, TLR8 or TLR9 receptors were used for screening inhibitors of these receptors using an inducible SEAP (secreted embryonic alkaline phosphatase) reporter gene under the control of the IFN-β minimal promoter fused to five NF-κB and AP-1-binding sites. Briefly, cells are seeded into Greiner 384 well plates (15000 cells per well for TLR7, 20,000 for TLR8 and 25,000 for TLR9) and then treated with test compounds in DMSO to yield a final dose response concentration range of 0.05 nM-50 μM. After a 30 minute compound pre-treatment at room temperature, the cells are then stimulated with a TLR7 ligand (gardiquimod at a final concentration of 7.5 μM), TLR8 ligand (R848 at a final concentration of 15.9 μM) or TLR9 ligand (ODN2006 at a final concentration of 5 nM) to activate NF-κB and AP-1 which induce the production of SEAP. After a 22 hour incubation at 37° C., 500 CO2, SEAP levels are determined with the addition of HEK-Blue™ Detection reagent (Invivogen), a cell culture medium that allows for detection of SEAP, according to manufacturer's specifications.

human TLR8 = human TLR8 (Homo sapiens (Human), UniProt Q9NR97); experiment: TLR8 inhibition reporter assay (HEK-Blue SEAP);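 also: SEAP driven by IFN-β minimal promoter with five NF-κB and AP-1 sites, compounds tested 0.05 nM to 50 µM, 22 h incubation, inhibition relative to agonist plus DMSO wells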
Sequence of human TLR8 (Q9NR97 27-1041): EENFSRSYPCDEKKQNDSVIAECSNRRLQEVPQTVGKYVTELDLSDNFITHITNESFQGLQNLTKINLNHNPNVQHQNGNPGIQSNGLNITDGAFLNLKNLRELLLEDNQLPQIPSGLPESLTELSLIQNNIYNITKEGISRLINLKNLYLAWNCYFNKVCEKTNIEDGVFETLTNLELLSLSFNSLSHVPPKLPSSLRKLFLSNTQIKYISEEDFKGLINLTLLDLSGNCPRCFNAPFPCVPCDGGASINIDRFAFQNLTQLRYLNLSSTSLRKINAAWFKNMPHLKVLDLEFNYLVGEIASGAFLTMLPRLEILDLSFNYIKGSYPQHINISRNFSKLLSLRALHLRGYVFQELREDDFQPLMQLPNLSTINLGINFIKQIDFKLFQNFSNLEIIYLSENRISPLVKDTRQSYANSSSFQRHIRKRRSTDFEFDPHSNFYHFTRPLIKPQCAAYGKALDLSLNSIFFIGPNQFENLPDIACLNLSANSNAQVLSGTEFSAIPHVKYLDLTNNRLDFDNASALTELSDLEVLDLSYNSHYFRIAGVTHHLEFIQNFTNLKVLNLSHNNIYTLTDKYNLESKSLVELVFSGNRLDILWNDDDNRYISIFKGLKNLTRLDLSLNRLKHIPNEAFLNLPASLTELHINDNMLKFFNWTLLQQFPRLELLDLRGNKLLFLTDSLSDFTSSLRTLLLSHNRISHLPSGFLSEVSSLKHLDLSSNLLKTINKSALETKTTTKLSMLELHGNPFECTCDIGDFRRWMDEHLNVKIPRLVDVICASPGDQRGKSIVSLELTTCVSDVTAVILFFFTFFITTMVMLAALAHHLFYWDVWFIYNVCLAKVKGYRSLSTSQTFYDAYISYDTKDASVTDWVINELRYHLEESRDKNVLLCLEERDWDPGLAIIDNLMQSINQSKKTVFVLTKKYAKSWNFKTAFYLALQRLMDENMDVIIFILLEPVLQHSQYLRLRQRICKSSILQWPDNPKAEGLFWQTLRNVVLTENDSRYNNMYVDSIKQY

[1] = read-out: TLR9 IC50; HEK-Blue cells overexpressing human TLR9, ODN2006 5 nM stimulation, SEAP reporter
[2] = read-out: TLR8 IC50; HEK-Blue cells overexpressing human TLR8, R848 15.9 μM stimulation, SEAP reporter
[3] = read-out: TLR9 IC50; HEK-Blue cells overexpressing human TLR9; ODN2006 5 nM stimulation; SEAP reporter
[4] = read-out: TLR8 IC50; HEK-Blue cells overexpressing human TLR8; R848 15.9 μM stimulation; SEAP reporter

| IC50 (human TLR9; [1]) | IC50 (human TLR7) | IC50 (human TLR8; [2]) | IC50 (human TLR9; [3]) | IC50 (human TLR8; [4]) | SMILES |
| --- | --- | --- | --- | --- | --- |
| 16700 nM | 6.9 nM | 1.9 nM |  |  | Cc1c(-c2[nH]c3cnc(C4CCC(NC5COC5)CC4)c(F)c3c2C(C)C)cn2ncnc2c1C (stereo not drawn) [Example 267] |
|  | 8.5 nM |  | 47900 nM | 3.1 nM | CNC(=O)CN1CCN(c2ncc3[nH]c(-c4cn5ncnc5c(C)c4C)c(C(C)C)c3c2F)[C@H](C)C1 [Example 465] |
| > 50000 nM | 9.3 nM | 2.3 nM |  |  | Cc1c(-c2[nH]c3cnc(N4CCN(CC(N)=O)CC4)c(F)c3c2C(C)C)cn2ncnc2c1C [Example 429] |
|  | 3.2 nM |  | 5770 nM | 2.7 nM | COc1cc(-c2[nH]c3cnc(N4CCC(N(C)CC(N)=O)CC4)c(F)c3c2C(C)C)cn2ncnc12 [Example 222] |
| 5160 nM | 1.6 nM | 0.21 nM |  |  | COc1cc(-c2[nH]c3cnc(N4CCC(NC5(C)COC5)CC4)c(F)c3c2C(C)C)cn2ncnc12 [Example 188] |
| 17500 nM | 1.4 nM | 2.1 nM |  |  | Cc1cc(-c2[nH]c3cnc(N4CCC(N(C)CC(N)=O)CC4)c(F)c3c2C(C)C)cn2ncnc12 [Example 158] |
| 9100 nM | 1.3 nM | 1.4 nM |  |  | CCN(C)C1CCN(c2ncc3[nH]c(-c4cn5ncnc5c(C)c4C)c(C(C)C)c3c2F)CC1 [Example 83] |
| 2500 nM | 1.3 nM | 1.2 nM |  |  | Cc1c(N2CCC(N(C)CCC#N)CC2)ncc2[nH]c(-c3cc(C)c4ncnn4c3)c(C(C)C)c12 [Example 280] |
| 46800 nM | 7.2 nM | 1.9 nM |  |  | Cc1c(-c2[nH]c3cnc(N4CCN(CCS(C)(=O)=O)CC4)c(F)c3c2C(C)C)cn2ncnc2c1C [Example 398] |
| 1250 nM | 0.84 nM | 0.4 nM |  |  | COc1cc(-c2[nH]c3cnc(C4CCC(NCC5(C)COC5)CC4)c(F)c3c2C(C)C)cn2ncnc12 (stereo not drawn) [Example 193] |
| 11900 nM | 13 nM | 1.6 nM |  |  | COc1cc(-c2[nH]c3cnc(N4CCN(CC(=O)N(C)C)CC4)cc3c2C(C)C)cn2ncnc12 [Example 300] |
| 265 nM | 5.5 nM | 13 nM |  |  | Cc1c(-c2[nH]c3cnc(C4CCC(NC(C)C)CC4)c(C)c3c2C(C)C)cn2ncnc2c1C (stereo not drawn) [Example 277] |
| 2060 nM | 0.62 nM | 0.27 nM |  |  | COc1cc(-c2[nH]c3cnc(N4CCC(NCC5(C)COC5)CC4)c(C)c3c2C(C)C)cn2ncnc12 [Example 147] |
| 935 nM | 0.9 nM | 0.3 nM |  |  | Cc1c(-c2[nH]c3cnc(N4CCC(NCC5(C)COC5)CC4)c(C)c3c2C(C)C)cn2ncnc2c1C [Example 54] |
| > 50000 nM | 1590 nM | > 3120 nM |  |  | CNC(=O)CN1CCN(c2cc3c(C(C)C)c(-c4cc(C)c5ncnn5c4)[nH]c3cn2)CC1 [Example 302] |
| 1460 nM | 0.18 nM | 0.36 nM |  |  | Cc1cc(-c2[nH]c3cnc(C4CCC(NC5CCOCC5)CC4)c(F)c3c2C(C)C)cn2ncnc12 (stereo not drawn) [Example 82] |
| 6060 nM | 3.4 nM | 5.3 nM |  |  | CNC(=O)CN1CCC(c2ncc3[nH]c(-c4cc(C)nc(C)c4)c(C(C)C)c3c2F)CC1 [Example 150] |
| 409 nM | 3.3 nM | 4.4 nM |  |  | COc1cc(-c2[nH]c3cnc(C4CCN(C(=O)CN(C)C)CC4)c(F)c3c2C(C)C)cn2ncnc12 [Example 37] |
| 4000 nM | 0.23 nM | 0.78 nM |  |  | Cc1cc(-c2[nH]c3cnc(N4CCC(N5CCC5)CC4)c(F)c3c2C(C)C)cn2ncnc12 [Example 70] |

| IC50 (human TLR9; [1]) | IC50 (human TLR7) | IC50 (human TLR8; [2]) | IC50 (human TLR9; [3]) | IC50 (human TLR8; [4]) | SMILES |
| --- | --- | --- | --- | --- | --- |
| 2830 nM | 2.5 nM | 1.4 nM |  |  | COc1cc(-c2[nH]c3cnc(N4CCN(CC(=O)N(C)C)CC4)c(Cl)c3c2C(C)C)cn2ncnc12 [Example 305] |
| 2530 nM | 0.61 nM | 1.4 nM |  |  | COc1cc(-c2[nH]c3cnc(N4CCNCC4)c(F)c3c2C(C)C)cn2ncnc12 [Example 353, 6-(4-fluoro-3-isopropyl-5-(piperazin-1-yl)-1H-pyrrolo[2,3-c]pyridin-2-yl)-8-methoxy-[1,2,4]triazolo[1,5-a]pyridine] |
| 5920 nM | 0.86 nM | 0.48 nM |  |  | COc1cc(-c2[nH]c3cnc(N4CCC(NC5CCOC5)CC4)c(F)c3c2C(C)C)cn2ncnc12 (stereo not drawn) [Example 103] |
| > 50000 nM | 13 nM | 25 nM |  |  | CNC(=O)CN1CCN(c2ncc3[nH]c(-c4cc(OC)c5ncnn5c4)c(C(C)C)c3c2F)[C@H](C)C1 [Example 445] |
| 11200 nM | 9.6 nM | 0.18 nM |  |  | Cc1c(-c2[nH]c3cnc(N4CCN(CC5CCOCC5)CC4)c(F)c3c2C(C)C)cn2ncnc2c1C [Example 411] |
| 676 nM | 40 nM | 27 nM |  |  | Cc1c(-c2[nH]c3cnc(C4CCC(NC5COC5)CC4)c(C)c3c2C(C)C)cn2ncnc2c1C (stereo not drawn) [Example 91] |
| 1900 nM | 0.26 nM | 0.49 nM |  |  | CCN(C)C1CCN(c2ncc3[nH]c(-c4cc(OC)c5ncnn5c4)c(C(C)C)c3c2C)CC1 [Example 138] |
| 391 nM | 7 nM | 22 nM |  |  | CCN(C)C1CCC(c2cc3c(C(C)C)c(-c4cc(OC)c5ncnn5c4)[nH]c3cn2)C1 (stereo not drawn) [Example 272] |
| 2780 nM | 6.5 nM | 6.8 nM |  |  | Cc1c(-c2[nH]c3cnc(C4CCNCC4)c(F)c3c2C(C)C)cn2ncnc2c1C [Example 13] |
| 1020 nM | 0.98 nM | 0.27 nM |  |  | Cc1c(-c2[nH]c3cnc(C4CCC(NC5CCOCC5)CC4)c(F)c3c2C(C)C)cn2ncnc2c1C (stereo not drawn) [Example 134] |
| 2820 nM | 0.34 nM | 0.24 nM |  |  | CCN(C)C1CCN(c2ncc3[nH]c(-c4cc(OC)c5ncnn5c4)c(C(C)C)c3c2F)CC1 [Example 102] |
| 400 nM | 14 nM | 10 nM |  |  | Cc1c(-c2[nH]c3cnc(C4CCC(NCC(C)(C)O)CC4)c(C)c3c2C(C)C)cn2ncnc2c1C (stereo not drawn) [Example 122] |
| 2150 nM | 1.3 nM | 1 nM |  |  | COc1cc(-c2[nH]c3cnc(C4CCC(NCC(C)(C)C)CC4)c(F)c3c2C(C)C)cn2ncnc12 (stereo not drawn) [Example 162] |
| 2770 nM | 0.63 nM | 0.36 nM |  |  | Cc1cc(-c2[nH]c3cnc(N4CCC(N5CC6(COC6)C5)CC4)c(F)c3c2C(C)C)cn2ncnc12 [Example 44] |
| 345 nM | 11 nM | 5.4 nM |  |  | Cc1c(-c2[nH]c3cnc(C4CCC(NCC(C)(C)C)CC4)cc3c2C(C)C)cn2ncnc2c1C (stereo not drawn) [Example 351] |
|  | 8.7 nM |  | 1460 nM | 4.2 nM | COc1cc(-c2[nH]c3cnc(C4CCC(NCC(C)(C)C)CC4)c(F)c3c2C(C)C)cn2ncnc12 (stereo not drawn) [Example 229] |
| 1270 nM | 0.61 nM | 1.1 nM |  |  | Cc1cc(-c2[nH]c3cnc(C4CCC(N(C)C(C)C)CC4)c(F)c3c2C(C)C)cn2ncnc12 (stereo not drawn) [Example 261] |
| 80 nM | 9.5 nM | 33 nM |  |  | CCN(C)C1CCC(c2cc3c(C(C)C)c(-c4cc(OC)c5ncnn5c4)[nH]c3cn2)CC1 (stereo not drawn) [Example 316] |
